The target of the assay is T1, human CD73 (Homo sapiens, UniProt P21589).
T1 sequence (P21589 27-549): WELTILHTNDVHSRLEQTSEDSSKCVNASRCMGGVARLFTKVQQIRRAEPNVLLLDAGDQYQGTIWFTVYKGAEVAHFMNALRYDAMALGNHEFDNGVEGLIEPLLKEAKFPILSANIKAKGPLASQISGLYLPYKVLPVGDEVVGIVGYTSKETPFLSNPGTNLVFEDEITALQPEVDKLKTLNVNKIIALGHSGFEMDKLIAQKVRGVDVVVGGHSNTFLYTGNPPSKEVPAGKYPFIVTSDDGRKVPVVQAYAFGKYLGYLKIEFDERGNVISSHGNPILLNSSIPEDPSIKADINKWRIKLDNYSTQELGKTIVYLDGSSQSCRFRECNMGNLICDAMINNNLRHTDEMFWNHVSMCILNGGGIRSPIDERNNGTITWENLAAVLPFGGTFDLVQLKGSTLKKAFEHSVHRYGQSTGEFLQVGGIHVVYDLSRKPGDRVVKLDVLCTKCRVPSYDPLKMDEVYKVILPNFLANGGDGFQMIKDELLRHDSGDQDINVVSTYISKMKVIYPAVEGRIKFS
Put plainly: Inhibition of Ecto-5′-nucleotidase (CD73) activity in CHO-CD73 cells, phosphate release from AMP. The format is cell-based. To be noted: CHO-K1 cells stably transfected with human CD73; 25 μM AMP; 50 minutes, 37° C.; read-out: Potency: CD73 IC50.

The structures appear in SMILES notation.

What is called IC50 is the concentration that gives 50% inhibition. As for `c1cc(-c2ccc3nnn(-c4ccc5cn[nH]c5c4)c3c2)n(Cc2ccc(C3CC3)cc2)n1` [Example 119], the IC50 was in the range of 100 to 1000 nM.

On to `N#Cc1ccc(Cn2nccc2-c2cc(F)c3nnn(-c4ccc5nc[nH]c5c4)c3c2)cc1` [Example 120], for which the IC50 was greater than 1000 nM.

Consider `FC1(F)CN(CCn2nccc2-c2ccc3nnn(-c4ccc5cn[nH]c5c4)c3c2)C1` [Example 121], for which the IC50 was greater than 1000 nM.

As to `FC(F)(F)c1cc(-c2ccnn2Cc2ccc(Cl)cc2Cl)cc2c1nnn2-c1ccc2cn[nH]c2c1` [Example 122], the IC50 is 100 to 1000 nM.

For the compound `N#Cc1ccc(Cn2nccc2-c2cc(C(F)(F)F)c3nnn(-c4ccc5cn[nH]c5c4)c3c2)cc1` [Example 123], the IC50 was 100 to 1000 nM.

For the compound `Clc1cc(-c2ccnn2CCc2ccccc2)cc2c1nnn2-c1ccc2cn[nH]c2c1` [Example 124], the IC50 fell in the range of 100 to 1000 nM.

With `N#Cc1ccc(Cn2nccc2-c2cc(C(F)(F)F)c3nnn(-c4ccc5cn[nH]c5c4)c3c2)nc1` [Example 125], the IC50 is 100 to 1000 nM.

As for `Clc1ccc(Cn2nccc2-c2ccn3nnc(-c4ccc5cn[nH]c5c4)c3c2)c(Cl)c1` [Example 126], the IC50 is less than 100 nM.

Turning to `O=C(O)c1n[nH]c2cc(-n3nnc4c(Cl)cc(-c5ccnn5Cc5ccc(Cl)cc5Cl)cc43)ccc12` [Example 127], the IC50 was greater than 1000 nM.

As for `c1ccc(Cn2nccc2-c2cc3c(cn2)nnn3-c2ccc3cn[nH]c3c2)cc1` [Example 128], the IC50 fell in the range of 100 to 1000 nM.

For the compound `N#Cc1ccc(Cn2nccc2-c2cnc3nnn(-c4ccc5cn[nH]c5c4)c3c2)cc1` [Example 129], the IC50 was 100 to 1000 nM.

With `Fc1c(-c2ccnn2Cc2ccccc2)ccc2nnn(-c3ccc4cn[nH]c4c3)c12` [Example 130], the IC50 was greater than 1000 nM.

`N#Cc1ccc(Cn2nccc2-c2cc(F)c3cnn(-c4ccc5cn[nH]c5c4)c3c2)nc1` [Example 131]: the IC50 is greater than 1000 nM.

Take `O=C(O)c1cccc(-n2nnc3c(F)cc(-c4ccnn4Cc4ccc(Cl)cc4Cl)cc32)c1` [Example 132]: the IC50 was greater than 1000 nM.

Regarding `Fc1cc(-c2ccnn2Cc2ccc(Cl)cn2)cc2c1cnn2-c1ccc2cn[nH]c2c1` [Example 133], the 50% inhibitory concentration (IC50) was greater than 1000 nM.

As for `Clc1ccc(Cn2nccc2-c2cnc3nnn(-c4ccc5cn[nH]c5c4)c3c2)c(Cl)c1` [Example 134], the half-inhibitory concentration (IC50) lay in the range of 100 to 1000 nM.

For the compound `Fc1cc2nnn(-c3ccc4cn[nH]c4c3)c2cc1-c1ccnn1Cc1ccccc1` [Example 136], the IC50 was greater than 1000 nM.

`Fc1cc(-c2ccnn2Cc2ccccc2)cc2c1nnn2-c1cnc2cn[nH]c2c1` [Example 137]: the IC50 was greater than 1000 nM.

Take `Fc1cc(-c2ccnn2Cc2ccccc2)cc2c1nnn2-c1cc2[nH]ncc2cn1` [Example 138]: the half-inhibitory concentration (IC50) is greater than 1000 nM.

On to `Nc1cc(-n2nnc3c(Cl)cc(-c4ccnn4Cc4ccc(Cl)cc4Cl)cc32)ccn1` [Example 139], for which the IC50 fell in the range of 100 to 1000 nM.

`N#Cc1ccc(Cn2nccc2-c2cc3c(cn2)nnn3-c2ccc3cn[nH]c3c2)cc1` [Example 140]: the IC50 lay within 100 to 1000 nM.

Turning to `Clc1ccc(Cn2nccc2-c2cc3c(cn2)nnn3-c2ccc3cn[nH]c3c2)c(Cl)c1` [Example 142], the IC50 is less than 100 nM.

Take `O=C1CCC(c2cc(F)c3nnn(-c4ccc5cn[nH]c5c4)c3c2)N1Cc1ccc(Cl)cc1Cl` (stereo not shown) [Example 143]: the IC50 was greater than 1000 nM.

As for `N#Cc1ccc(Cn2nccc2-c2cc(F)c3nnn(-c4cc5[nH]ncc5cc4F)c3c2)cc1` [Example 144], the concentration for half-maximal inhibition (IC50) is less than 100 nM.

Consider `N#Cc1ccc(Cn2nccc2-c2cc(Cl)c3nnn(-c4ccnc(N)c4)c3c2)nc1` [Example 145], for which the IC50 was greater than 1000 nM.

In the case of `N#Cc1ccc(Cn2nccc2-c2cc3c(cn2)ncn3-c2ccc3cn[nH]c3c2)cc1` [Example 146], the 50% inhibitory concentration (IC50) is greater than 1000 nM.

Turning to `N#Cc1ccc(Cn2nccc2-c2cc3c(cn2)cnn3-c2ccc3cn[nH]c3c2)cc1` [Example 147], the IC50 is greater than 1000 nM.

For the compound `Clc1ccc(Cn2nccc2-c2cc3c(cn2)cnn3-c2ccc3cn[nH]c3c2)nc1` [Example 149], the IC50 was greater than 1000 nM.

For `N#Cc1ccc(Cn2nccc2-c2cc3c(cc2Cl)nnn3-c2ccc3cn[nH]c3c2)cc1` [Example 150], the IC50 was less than 100 nM.

Regarding `N#Cc1ccc(Cn2nccc2-c2cc3c(cc2Cl)nnn3-c2ccc3cn[nH]c3c2)cc1` [Example 151], the IC50 fell in the range of 100 to 1000 nM.

`N#Cc1ccc(Cn2nccc2-c2cnc3cnn(-c4ccc5cn[nH]c5c4)c3c2)cc1` [Example 152]: the IC50 is greater than 1000 nM.

Regarding `O=c1[nH]c2ccc(-n3ncc4cnc(-c5ccnn5Cc5ccc(Cl)cn5)cc43)cc2[nH]1` [Example 153], the IC50 is greater than 1000 nM.

As to `N#Cc1ccc(Cn2nccc2-c2cc3c(cn2)nnn3-c2ccc3[nH]c(=O)[nH]c3c2)cc1` [Example 154], the half-maximal inhibitory concentration (IC50) fell in the range of 100 to 1000 nM.

Regarding `N#Cc1ccc(Cn2nccc2-c2cc(F)c3nnn(-c4ccc5c(c4)NC(=O)C5)c3c2)cc1` [Example 156], the IC50 is greater than 1000 nM.

Take `N#Cc1ccc(Cn2nccc2-c2ccc3nnn(-c4ccc5[nH]c(=O)[nH]c5c4)c3c2)cc1` [Example 157]: the IC50 fell in the range of 100 to 1000 nM.

Turning to `O=c1[nH]c2ccc(-n3nnc4ncc(-c5ccnn5Cc5ccc(Cl)cc5Cl)cc43)cc2[nH]1` [Example 158], the IC50 lay in the range of 100 to 1000 nM.

Regarding `O=c1[nH]c2cc(-n3nnc4c(F)cc(-c5ccnn5Cc5ccc(Cl)cc5Cl)cc43)ccc2o1` [Example 159], the concentration for half-maximal inhibition (IC50) was greater than 1000 nM.

As to `Nc1cc(-n2nnc3c(F)cc(-c4ccnn4Cc4ccc(Cl)cn4)cc32)ccc1O` [Example 160], the IC50 was greater than 1000 nM.

In the case of `O=c1[nH]c2cc(-n3nnc4c(F)cc(-c5ccnn5Cc5ccc(Cl)cn5)cc43)ccc2o1` [Example 161], the IC50 was greater than 1000 nM.

Take `Nc1cccc(-n2nnc3c(Cl)cc(-c4ccnn4Cc4ccc(Cl)cc4Cl)cc32)c1` [Example 162]: the IC50 was greater than 1000 nM.

With `Clc1ccc(Cn2nccc2-c2cnc3cnn(-c4ccc5cn[nH]c5c4)c3c2)c(Cl)c1` [Example 163], the IC50 was 100 to 1000 nM.

For `Clc1ccc(Cn2nccc2-c2cnc3cnn(-c4ccc5cn[nH]c5c4)c3c2)nc1` [Example 164], the IC50 is 100 to 1000 nM.

Take `O=c1[nH]c2ccc(-n3nnc4cnc(-c5ccnn5Cc5ccc(Cl)cn5)cc43)cc2[nH]1` [Example 165]: the IC50 fell in the range of 100 to 1000 nM.

As to `N#Cc1ccc(Cn2nccc2-c2cc(F)c3nnn(-c4ccc5oc(=O)[nH]c5c4)c3c2)cc1` [Example 166], the IC50 is greater than 1000 nM.

As for `Cc1nc(-c2ccnn2Cc2ccc(C#N)cc2)cc2c1nnn2-c1ccc2cn[nH]c2c1` [Example 169], the 50% inhibitory concentration (IC50) lay in the range of 100 to 1000 nM.

In the case of `O=c1[nH]c2ccc(-n3nnc4c(F)cc(-c5ccnn5Cc5ccc(Cl)cc5Cl)cc43)cc2[nH]1` [Example 170], the IC50 lay in the range of 100 to 1000 nM.

For the compound `O=c1[nH]c2ccc(-n3nnc4c(F)cc(-c5ccnn5Cc5ccc(Cl)cn5)cc43)cc2[nH]1` [Example 171], the IC50 was in the range of 100 to 1000 nM.

As to `Fc1ccc(Cn2nccc2-c2cc(F)c3nnn(-c4ccc5nc[nH]c5c4)c3c2)nc1` [Example 172], the IC50 is greater than 1000 nM.

`O=c1[nH]c2ccc(-n3nnc4c(F)cc(-c5ccnn5Cc5ccc(F)cn5)cc43)cc2[nH]1` [Example 173]: the IC50 is 100 to 1000 nM.

Regarding `O=c1[nH]c2ccc(-n3nnc4c(F)cc(-c5ccnn5Cc5ccc(F)cn5)cc43)cc2[nH]1` [Example 174], the IC50 is greater than 1000 nM.

For the compound `N#Cc1ccc(Cn2nccc2-c2cc(F)c3c(N)nn(-c4ccc5[nH]c(=O)[nH]c5c4)c3c2)cc1` [Example 175], the IC50 was greater than 1000 nM.

Regarding `N#Cc1ccc(Cn2nccc2-c2cc(F)c3nnn(-c4ccc5[nH]c(=O)[nH]c5c4)c3c2)nc1` [Example 176], the IC50 lay within 100 to 1000 nM.

For `Fc1cc(-c2ccnn2Cc2ccc(-c3ncco3)cc2)cc2c1nnn2-c1ccc2cn[nH]c2c1` [Example 177], the IC50 was greater than 1000 nM.

In the case of `N#Cc1ccc(Cn2nccc2-c2cc3c(cn2)nnn3-c2ccc3[nH]c(=O)[nH]c3c2)nc1` [Example 178], the IC50 is 100 to 1000 nM.

In the case of `N#Cc1ccc(Cn2nccc2-c2cnc3cnn(-c4ccc5cn[nH]c5c4)c3c2)nc1` [Example 179], the IC50 is greater than 1000 nM.

For `N#Cc1ccc(Cn2nccc2-c2cnc3cnn(-c4ccc5[nH]c(=O)[nH]c5c4)c3c2)cc1` [Example 180], the IC50 is greater than 1000 nM.

Turning to `Fc1ccc(Cn2nccc2-c2cnc3cnn(-c4ccc5cn[nH]c5c4)c3c2)nc1` [Example 181], the IC50 was greater than 1000 nM.

As for `CC(O)c1ccc(Cn2nccc2-c2cc(F)c3nnn(-c4ccc5[nH]c(=O)[nH]c5c4)c3c2)cc1` (stereo not shown) [Example 182], the half-inhibitory concentration (IC50) was greater than 1000 nM.

Take `CC(C)(O)c1ccc(Cn2nccc2-c2cc(F)c3nnn(-c4ccc5[nH]c(=O)[nH]c5c4)c3c2)cc1` [Example 183]: the IC50 is greater than 1000 nM.

On to `O=C(Cn1nccc1-c1cc(Cl)c2nnn(-c3ccc4cn[nH]c4c3)c2c1)N1CCCCC1` [Example 184], for which the half-inhibitory concentration (IC50) was greater than 1000 nM.

Take `CC(NC(=O)Cn1nccc1-c1cc(Cl)c2nnn(-c3ccc4cn[nH]c4c3)c2c1)c1ccccc1` (stereo not shown) [Example 185]: the IC50 is greater than 1000 nM.

For `O=c1[nH]c2ccc(-n3nnc4c(Cl)cc(-c5ccnn5Cc5ccc(Cl)cc5Cl)cc43)cc2[nH]1` [Example 186], the half-maximal inhibitory concentration (IC50) was in the range of 100 to 1000 nM.

Take `CN(C(=O)Cn1nccc1-c1cc(Cl)c2nnn(-c3ccc4cn[nH]c4c3)c2c1)c1ccccc1` [Example 187]: the 50% inhibitory concentration (IC50) is greater than 1000 nM.

`N#Cc1ccc(Cn2nccc2-c2cc(Cl)c3nnn(-c4ccc5[nH]c(=O)[nH]c5c4)c3c2)cc1` [Example 188]: the half-maximal inhibitory concentration (IC50) is 100 to 1000 nM.

These data come from patent US11931343B2 (ARCUS BIOSCIENCES, INC., priority 2018, dated 2024).
